Assay results taken from patent publication US9561284B2, “Pharmaceutical composition containing a block copolymer bound to a boronic acid compound” (NANOCARRIER CO., LTD., priority 2011, dated 2017).

Experiment: Drug efficacy test: body weight of the mice
Type: in vivo, male nude mice (Balb nu/nu)
Procedure: Human prostate cancer PC-3 cells were inoculated under the dorsal skin of male nude mice (Balb nu/nu, 5-week-old, CHARLES RIVER LABORATORIES JAPAN, INC.) at 3×10^6 cells per mouse. At the time when the tumor volume reached 90.7±4.5 mm^3 (mean±standard error (SE)) (on day 10 after the inoculation), the drug was administered into the tail vein. […] It should be noted that the dosage is the amount in terms of the drug for each of the groups. […] It should be noted that, when the dosage of the bortezomib aqueous solution was set to more than 1 mg/kg, toxicity due to the active pharmaceutical ingredient became remarkable and the amount of body weight loss reached a severe level (e.g., a loss of 20% or more).

With `CC(C)C[C@H](NC(=O)[C@H](Cc1ccccc1)NC(=O)c1cnccn1)B(O)O` [Comparative Example 2, bortezomib] the Body weight loss (dosage of more than 1 mg/kg, toxicity became remarkable) was at least 20% and the “Relative body weight 7 days after administration vs administration date” value (tail vein, 1 mg/kg) was “no significant difference in mouse body weight”.
